Laboratory results published in patent US5182289A, “Heterobicyclic compounds having antiinflammatory activity” (Schering Corporation, priority 1990, dated 1993).
Read-outs that look alike come from different tables or passages of the source.

Test system: Reversed Passive Arthus Reaction (RPAR) in the pleural cavity
Test: Reversed Passive Arthus Reaction (RPAR) in the pleural cavity: cells and fluid
Type: in vivo, male rats
Details: dose 25 mpk; for RPAR-Pleural Cavity Percent Inhibition cells / RPAR-Pleural Cavity Percent Inhibition fluid: Table 3A, formula (IIi); for inhibition in vivo at 25 mg/kg: Rattus norvegicus, 4 h
Procedure: Reversed Passive Arthus Reaction (RPAR) Assay
Groups of 4 male rats were injected in the penile vein with antigen (1 mg BSA in 0.2 mL of saline per rat) and 0.5 hour later injected in the pleural cavity with antibody (1.0 mg antibody protein in the IgG fraction of rabbit anti-BSA in 0.2 mL). […] After 4 hours the animals were killed with CO2, and the pleural cavities were opened and the exudate drained into a graduated conical glass centrifuge tube containing indomethacin (1.8 ug) and nordihydroguaiaretic acid (NDGA) (15 ug) to block ex vivo metabolite synthesis. The volume of the exudate was measured. The cavity was then washed out with saline-EDTA to achieve a final volume of 5.0 mL. The number of cells were determined in a Colulter Counter. The cells were spun-down (1000×g) and the exudate supernatant was added to 4 volumes of 95% ethanol and samples were kept on ice for 30 minutes. After removal of the protein precipitate (2,500×g) the ethanol extract of the exudate was dried under N2 and then stored at -20° C. For radioimmunoassay (RIA) analysis the samples were redissolved in water to a volume of 1 mL per rat. Utilizing internally spiked samples, recovery of TXB2 (tritiated thromboxane B2) and LTE4 (tritiated leukotriene-E4) from exudates was determined to be 84±2% (SEM) and 89±2% (N=4), respectively. Exudate samples were directly assayed in duplicate with the commercial ^3 H-TXB2 RIA kit from New England Nuclear and the ^3 H-LTC4 /D4 /E4 kit from Amersham. The assay was validated using reversed-phase HPLC analysis of LTs in the standard procedure described by M. W. Musch, R. W. Bryant, C. Coscollaela, R. F. Myers and M. I. Siegel, Prostaglandins, Vol. 29, pp 405-430 (1985). Samples of ethanol exudate extract were "spiked" with ^3 H-LTs to follow HPLC purification and recovery.

[1] = read-out: RPAR-Pleural Cavity % Inhibition cells
[2] = read-out: RPAR-Pleural Cavity % Inhibition fluid

Row | SMILES | RPAR-Pleural Cavity Percent Inhibition cells | RPAR-Pleural Cavity Percent Inhibition fluid | inhibition in vivo at 25 mg/kg [1] | inhibition in vivo at 25 mg/kg [2]
1 | CC(C(=O)O)c1cccnc1Nc1ccc(Cl)cc1 (stereo not drawn) [Compound 49, sodium 2-(4-chlorophenylamino)-α-methyl-3-pyridine acetate] | 67% | 54% |  | 
2 | CC1(F)C(=O)N(c2ccccc2)c2ncccc21 (stereo not shown) [Compound 4, 1,3-dihydro-3-fluoro-3-methyl-1-phenyl-2H-pyrrolo[2,3-b]pyridin-2-one] |  |  | 50% | 35%
3 | O=C(O)Cc1cccnc1Nc1cccc(C(F)(F)F)c1 [Compound 45, 2-(3-trifluoromethylphenylamino)-3-pyridine acetic acid] | 22% | 14% |  | 
4 | O=C(O)Cc1cccnc1Nc1ccc(Cl)cc1 [Compound 48, sodium 2-(4-chlorophenylamino)-3-pyridine acetate] | 0% | 0% |  | 
5 | O=C(O)Cc1cccnc1Nc1ccc(Cl)c(Cl)c1 [Compound 47, sodium 2-(3,4-dichlorophenylamino)-3-pyridine acetate] | 16% | 19% |  | 
6 | CC1(C)C(=S)N(c2ccccc2)c2ncccc21 [Compound 7, 1,3-dihydro-3,3-dimethyl-1-phenyl-2H-pyrrolo[2,3-b]pyridin-2-thione] |  |  | 35% | 33%
7 | CSc1ccc(N2C(=O)C(C)(C)c3cccnc32)cc1 [Compound 10, 1,3-dihydro-3,3-dimethyl-1-[4-(methylthio)phenyl]-2H-pyrrolo[2,3-b]pyridin-2-one] |  |  | 29% | 37%
8 | CC(C)(C(=O)O)c1cccnc1Nc1ccc(Cl)cc1 [Compound 46, sodium 2-(4-chlorophenylamino)-α,α-dimethyl-3-pyridine acetate] | 62% | 71% |  | 
